We go through two compounds from patent US7815900B1, “Use of C3-C5 monosaccharides to protect keratinous fibers” (L'Oréal S.A., priority 2000, dated 2010).

Experiment [1] is described as follows: Dry tensile strength (Instron) after heat cycles. The note with it: normal blonde hair, 0.06 M solutions, n = 50 fibers; for Work 25%: dry, 5 cycles at 45° C.; for Work 25% (Dry): 5 heat cycles at 130° C. The method, then: (§1) Tensile strength was determined using both the Instron (50 dry fibers per tests) and the Dia-Stron (100 wet fibers per test), with the stretching rate of 100 mm/min. The following parameters were determined: Young's Modulus (N/m^2), Work to stretch 25% (J/m^2); Extension to Break (degree of elongation) (%); Work to Break (J/m^2).
(§2) Normal blonde hair was bleached with Clairol Basic White Bleach, 40 volume H2O2, for 20 min at room temperature. One batch of normal and bleached hair swatches underwent five heat cycles at 130° C., where one treatment cycle involved the following steps (1-4):
(§3) 1. The swatches were treated with 0.06 M solutions of monosaccharides in deionized water (about 1 wt %) for 10 min at 45° C.
(§4) 2. The treated swatches were blow-dried for 1 min.
(§5) 3. The heat was applied for 1 min in the form of a flat hair iron Windmere “Solid Gold” (130° C.).
(§6) 4. The swatches were rinsed and blot-dried with a paper-towel.
(§7) The treatment solutions included four pentoses (D-xylose, D-arabinose, D-lyxose, and D-ribose, 1% each) and one hexose (1.2% D-glucose). Deionized water was used as a control treatment. After the heat experiment, the hair was rinsed in water, air-dried, and equilibrated for 24 hours in the humidity chamber at 25° C. and 50% RH prior to further testing. These swatches are referred to as treated at 130° C.
(§8) A second batch of normal and bleached hair swatches were treated in a similar way and blow-dried, without application of the hot iron. The treatment was also repeated 5 times, the swatches from the second batch are referred to as treated at 45° C.

The nature of experiment [2]: Dry tensile strength (Instron) after heat cycles. The method, then:
(§9) Normal blonde hair was bleached with Clairol Basic White Bleach (40 volume H2O2) for 20 min at standard room temperature and humidity. The bleached swatches were rinsed with tap water, and soaked in an excess of deionized water for 2 hours. The swatches were air-dried and equilibrated for 48 hours prior to further treatment. Some of the bleached swatches were subsequently “permed” using a Reforming Lotion (10% TGA, pH 8.8, 20 minutes) and then neutralized with 2% H2O2, pH 3 (5 minutes). The bleached/permed swatches were rinsed with tap water, and soaked in an excess of deionized water for 2 hours. The swatches were air-dried and equilibrated for 48 hours prior to further treatment. The swatches that were heat treated were treated with 0.06M solutions of hexoses and pentoses for 10 min at 45° C. and then were heated for 12 cycles. The swatches were rinsed after the heat application.
as §1, §2, §3, §4, §5, §6, §7, §8
(§10) Both the bleached and the bleached/permed hair were subjected to heat treatment, as in Example 2. The heat treatment experiment involved 12 heat cycles including application of sugar or control solution before each heat application, and rinsing after the heat application. Deionized water was used as a control treatment.
(§11) After the heat experiment, the hair was rinsed in water, air-dried, and equilibrated for 24 h in the humidity chamber at 25° C. and 50% RH prior to further testing. The effect of the hexoses vs. pentoses on the dry tensile strength (INSTRON) and the alpha-structure (doublet peak area, DSC) was tested on the bleached hair (Table 13). The effect of a hexose (D-glucose) vs. a pentose (D-Xylose) on wet tensile strength (DIA-STRON) was tested both on the bleached and the bleached/permed hair (Table 14). Application of 0.06M solutions of pentoses protected the bleached and the bleached/permed hair against thermal damage (α-structure; wet and dry tensile strength).

Experiment [3] is described as follows: DSC doublet peak area (α-structure) of hair after heat cycles. The note with it: for Doublet Peak Area, normalized: 5 cycles. The method, then: as §9
(§12) In the DSC tests, finely cut hair (4-5 mg) was crimped in an aluminum pan that was punctured prior to each run. The samples were heated from 25° C. to 300° C., at a scanning rate of 20° C./min, with 5 runs per treatment. The results were averaged.
as §2, §3, §4, §5, §6, §7, §8
Normal blonde hair was subjected to 12 heat cycles, as described in Example 2, using the following treatment solutions: 0.1% D-Xylose (pentose), 0.1% D-Erythrose (tetrose), and 0.1% D-Glyceraldehyde (triose). Each of the C3 to C5 monosaccharides was effective in protecting or reducing the damage to the α-structure of the hair, as compared to water treatment (Table 15).
Normal blonde hair was subjected to 12 heat cycles, as described in Example 2, using 0.1 wt % of the pentose amine derivative, D-Lyxosylimine in deionized water.

Test in experiment [4]: as above
As to the method:
as §9, §12, §2, §3, §4, §5, §6, §7, §8
Normal blonde hair was divided in two batches. The hair from the first batch was bleached with Clairol Basic White Bleach, 40 volume H2O2, for 20 min at room temperature and humidity. The hair from the second batch was first bleached as above, and then permed: Reforming lotion-10% Thioglycolic acid, pH 8.8, 20 min; neutralizer-2% hydrogen peroxide, 5 min. The oxidatively damaged hair was equilibrated for 24 hours prior to further testing.
as §10, §11

Where [5] appears, read: bleached hair after 12 heat cycles, 0.06 M solutions, n = 100 fibers.
Setting [6] is: bleached hair, 5 heat cycles at 130° C., 0.06 M solutions, n = 50 fibers.
[7] abbreviates: dry bleached hair, 12 heat cycles, 0.06 M, INSTRON, n = 50 fibers.
The mark [8] stands for this setting: dry, bleached hair, 5 cycles at 45° C., 0.06 M solutions, n = 50 fibers.
The mark [9] stands for this setting: normal blonde hair, 5 cycles at 45° C., 0.06 M solutions.
Where [10] appears, read: normal blonde hair, 45° C. (blow drying).
Where [11] appears, read: normal blonde hair, 130° C. (blow-drying + hot iron).
Where [12] appears, read: normal blonde hair, 5 heat cycles at 130° C., 0.06 M solutions.
[13] abbreviates: bleached hair after 12 heat cycles, 0.06 M solutions.
Setting [14] is: bleached hair after 12 heat cycles, 0.06 M solutions (Table 14).
Setting [15] is: bleached hair, 5 cycles at 45° C., 0.06 M solutions.
[16] abbreviates: bleached hair, 5 heat cycles at 130° C., 0.06 M solutions.

Turning to `O=C[C@H](O)[C@@H](O)[C@H](O)[C@H](O)CO` [D-Glucose, reference compound], the “Work 25%” value in experiment [1] was 837.0 +/− 255.9 J/m^2; in experiment [2] (setting [7]), 913.9 +/− 158.2 J/m^2; in experiment [2] (setting [8]), 984.6 +/− 169.6 J/m^2. In addition, the “Work 25% (Dry)” value is reported as 836.9 +/− 119.6 J/m^2 in experiment [1], 913.9 +/− 158.2 J/m^2 in experiment [2] (setting [5]) and 864.7 +/− 184.4 J/m^2 in experiment [2] (setting [6]). The Extension-Break in experiment [2] (setting [7]) is listed as 56.01 +/− 7.21%. Also, the Work-Break in experiment [2] (setting [7]) was 2,599 +/− 604 J/m^2. In addition, the “Young's Modulus” value in experiment [2] (setting [7]) was 4,623 +/− 813 MN/m^2. Besides, the “Doublet Peak Area” value in experiment [3] (setting [9]) is on record as 11.65 +/− 4.98 J/g hair; in experiment [3] (setting [12]), 7.60 +/− 1.01 J/g hair; in experiment [4] (setting [13]), 5.56 +/− 1.16 J/g hair; in experiment [4] (setting [14]), 5.56 +/− 1.16 J/g hair; in experiment [4] (setting [15]) it was 6.35 +/− 2.71 J/g hair; in experiment [4] (setting [16]), 5.37 +/− 1.22 J/g hair. In addition, the “Doublet Peak Area, normalized” value is given as 11.65 +/− 4.98 J/g hair in experiment [3] (setting [10]) and 7.60 +/− 1.01 J/g hair in experiment [3] (setting [11]).
Consider `O=C[C@H](O)[C@@H](O)[C@H](O)CO` [D-Xylose], for which the results for the “Work 25%” value in experiment [1], in experiment [2] (setting [7]) and in experiment [2] (setting [8]) were 1,155 +/− 224 J/m^2, 1,204 +/− 215 J/m^2 and 1,182 +/− 215 J/m^2, respectively. In addition, the figures for the “Work 25% (Dry)” value in experiment [1], in experiment [2] (setting [5]) and in experiment [2] (setting [6]) were 1,150 +/− 818 J/m^2, 1,204 +/− 215 J/m^2 and 1,051 +/− 191 J/m^2, respectively. The Extension-Break in experiment [2] (setting [7]) is 55.28 +/− 7.08%. Besides, the Work-Break in experiment [2] (setting [7]) is 3,161 +/− 771 J/m^2. Further, the “Young's Modulus” value in experiment [2] (setting [7]) was 5,802 +/− 1,161 MN/m^2. Further, the “protection of dry tensile strength, in words” value in experiment [2] (hair treated 5 cycles at 45° C. and at 130° C.) was “improved protection both at 45 °C and at 130 °C”. Besides, the Normalized area in experiment [3] (normal blonde hair after 12 heat cycles, 1% in water) was 16.05 +/− 5.05 J/g hair; in experiment [4] (bleached hair, 12 heat cycles, 0.06 M) it was 9.74 +/− 2.13 J/g hair. In addition, the “Doublet Peak Area” value in experiment [3] (normal blonde hair, 0.1 wt % solutions, 12 heat cycles at 130° C.) was 12.74 +/− 2.32 J/g hair; in experiment [3] (setting [9]), 20.17 +/− 11.98 J/g hair; in experiment [3] (setting [12]) it was 15.27 +/− 5.14 J/g hair; in experiment [4] (setting [13]) it was 9.74 +/− 2.13 J/g hair; in experiment [4] (setting [14]), 9.74 +/− 2.13 J/g hair; in experiment [4] (setting [15]), 8.41 +/− 1.33 J/g hair. The “Doublet Peak Area” value in experiment [4] (setting [16]) is recorded as 9.66 +/− 2.59 J/g hair. In addition, the “Doublet Peak Area, normalized” value is listed as 20.17 +/− 11.98 J/g hair in experiment [3] (setting [10]) and 15.27 +/− 5.14 J/g hair in experiment [3] (setting [11]). For the same compound, the “protection of the hair structure as compared to water (DSC), in words” value in experiment [3] (normal blonde hair, 12 heat cycles, 1% in water) is recorded as “appeared to protect the hair structure”. For the same compound, the “protection effect (normalized α-structure peak area), in words” value in experiment [4] (bleached and bleached/permed hair, 12 heat cycles) is “protection effect was found”.
